ChEMBL document CHEMBL3046896, “Synthesis and antitumor screening of new series of pyrimido-[4,5-b]quinolines and [1,2,4]triazolo[2,3:3,4]pyrimido[6,5-b]quinolines” (Med Chem Res, 2013)
The source made the active and inactive calls. The rule behind the calls is not given here.

Key:
[1] = Displacement of methyl green from DNA after 24 hr by spectrophotometric analysis
[2] = tested on: MCF7; assay: Cytotoxicity against Homo sapiens (human) MCF7 cells after 48 hr by SRB assay; assay type: functional, cell-based; settings: MCF7, 48 h
[3] = Binding affinity to DNA at 5 mg/ml by TLC analysis

| Compound | IC50 [1] | IC50 [2] | Activity [3] |
| --- | --- | --- | --- |
| BLEOMYCIN | 10 µM | – | – |
| COc1ccc(C2C3=C(CCCC3)Nc3nc(C)[nH]c(=O)c32)cc1OC (stereo not drawn) | 25 µM | > 10 µM | Active |
| CCCCn1c(=S)[nH]c2c(c1=N)C(c1ccc(Cl)cc1)C1=C(CCCC1)N2 (stereo not drawn) | 88 µM | – | inactive |
| COc1ccc(C2C3=C(CCCC3)Nc3ncnc(N)c32)cc1OC (stereo not drawn) | 12 µM | 3.62 µM | Active |
| Cc1nc2c(c(=O)[nH]1)C(c1cccc(Br)c1)C1=C(CCCC1)N2 (stereo not drawn) | 32 µM | 4.03 µM | Active |
| CCCCn1c(=S)[nH]c2c(c1=N)C(c1ccccc1)C1=C(CCCC1)N2 (stereo not drawn) | 72 µM | 5.7 µM | Active |
| O=c1[nH]cnc2c1C(c1ccccc1)C1=C(CCCC1)N2 (stereo not drawn) | 88 µM | > 10 µM | inactive |
| N=c1c2c(ncn1/N=C/c1ccc(Cl)cc1)NC1=C(CCCC1)C2c1ccccc1 (stereo not drawn) | 88 µM | – | inactive |
| N=c1c2c([nH]c(=S)n1-c1ccccc1)NC1=C(CCCC1)C2c1ccccc1 (stereo not drawn) | 25 µM | 6.98 µM | Active |
| Brc1cccc(C2C3=C(CCCC3)Nc3ncn4ncnc4c32)c1 (stereo not drawn) | 90 µM | > 10 µM | inactive |
| CCOC(=O)/N=c1/c2c(ncn1NC(=O)OCC)NC1=C(CCCC1)C2c1ccccc1 (stereo not drawn) | 40 µM | 5.44 µM | Active |
| N=c1c2c(ncn1/N=C/c1ccc(Cl)cc1)NC1=C(CCCC1)C2c1ccc(Cl)cc1 (stereo not drawn) | 70 µM | > 10 µM | Active |
| S=c1[nH]c2c(c(=S)[nH]1)C(c1ccccc1)C1=C(CCCC1)N2 (stereo not drawn) | 72 µM | – | Active |
| c1ccc(C2C3=C(CCCC3)Nc3ncn4ncnc4c32)cc1 (stereo not drawn) | 88 µM | > 10 µM | inactive |
| Cc1nc2c(c(=O)[nH]1)C(c1ccccc1)C1=C(CCCC1)N2 (stereo not drawn) | 22 µM | 4.97 µM | Active |
| Nc1ncnc2c1C(c1ccc(Cl)cc1)C1=C(CCCC1)N2 (stereo not drawn) | 25 µM | 3.89 µM | Active |
| COc1ccc(C2C3=C(CCCC3)Nc3[nH]c(=S)[nH]c(=S)c32)cc1OC (stereo not drawn) | 38 µM | > 10 µM | Active |
| COc1ccc(C2C3=C(CCCC3)Nc3[nH]c(=S)n(-c4ccccc4)c(=N)c32)cc1OC (stereo not drawn) | 40 µM | 5.3 µM | Active |
| COc1ccc(C2C3=C(CCCC3)Nc3ncn(/N=C/c4ccc(Cl)cc4)c(=N)c32)cc1OC (stereo not drawn) | 14 µM | 3.76 µM | Active |
| COc1ccc(/C=N/n2cnc3c(c2=N)C(c2ccccc2)C2=C(CCCC2)N3)cc1OC (stereo not drawn) | 32 µM | 5.37 µM | Active |
| S=c1[nH]c2c(c(=S)[nH]1)C(c1cccc(Br)c1)C1=C(CCCC1)N2 (stereo not drawn) | 76 µM | 4.5 µM | Active |
| N=c1c2c([nH]c(=S)n1-c1ccccc1)NC1=C(CCCC1)C2c1ccc(Cl)cc1 (stereo not drawn) | 55 µM | – | Active |
| COc1ccc(/C=N/n2cnc3c(c2=N)C(c2ccc(OC)c(OC)c2)C2=C(CCCC2)N3)cc1OC (stereo not drawn) | 38 µM | 6.17 µM | Active |
